Experimental data taken from publication PMC3228873 (Journal of medicinal chemistry, 2011).

Assays:
TbrPDEB2 = TbrPDEB2 (Trypanosoma brucei brucei, UniProt Q38F42); assay: TbrPDE assay, recombinant TbrPDEB2 catalytic domain; format: biochemical
TbrPDEB1 = TbrPDEB1 (Trypanosoma brucei, UniProt Q8WQX9); assay: TbrPDE assay, recombinant TbrPDEB1 catalytic domain; format: biochemical; details: for IC50: read-out: TbrPDEB1 IC50, Table 1, 10% DMSO, 25 μM cAMP, ">> x μM" if <25% inh at x μM, "> x μM" if 25-50% inh at x μM; for activity against TbrPDEB1 (in words): benchmark screening; for inhibition at 100 µM / inhibition at 10 µM: read-out: inhibition of TbrPDEB1
[1] = tested on: Bloodstream forms of Trypanosoma brucei brucei strain 427; assay: Trypanosome cell culture assay; format: cell-based

CS(=O)(=O)Oc1ccc2c(NC(N)=O)c(C(=O)c3ccc(Cl)cc3Cl)oc2c1 [BAY 19-8004]
IC50 (TbrPDEB2; read-out: TbrPDEB2 IC50, Table 1, 10% DMSO, 25 μM cAMP, ">> x μM" if <25% inh at x μM, "> x μM" if 25-50% inh at x μM): > 10 µM
IC50 (TbrPDEB1): > 10 µM

COc1ccc(C(=O)Nc2c(Cl)cncc2Cl)cc1OC1CCCC1 [Compound 1, piclamilast]
inhibition of TbrPDEB1 (TbrPDEB1; single concentration, not stated for this compound): over 50%

COc1cc(C(=O)Nc2c(Cl)cncc2Cl)cc(OC)c1OC [Compound 9, N-(3,5-dichloropyridin-4-yl)-3,4,5-trimethoxybenzamide]
activity against TbrPDEB2 (in words) (TbrPDEB2): without TbrPDEB1 or B2 activity
activity against TbrPDEB1 (in words) (TbrPDEB1): without TbrPDEB1 or B2 activity
cellular (trypanocidal) activity (in words) [1]: did not show cellular activity

OCCN(CCO)c1nc(N2CCCCC2)c2nc(N(CCO)CCO)nc(N3CCCCC3)c2n1 [Dipyridamole (3), dipyridamole]
inhibition at 100 µM (TbrPDEB1): > 50%

COc1cccc(Nc2c(C(N)=O)cnc3c(C)cc(S(=O)(=O)c4cccc(C(=O)N(C)C)c4)cc23)c1 [GSK-256066, (5)]
inhibition at 10 µM (TbrPDEB1): ≥ 50%

Cc1noc(/C(=C/c2cccc(-c3cc(C(C)(C)S(C)(=O)=O)cc4cccnc34)c2)c2ccc(S(C)(=O)=O)cc2)n1 [L-454560 (4)]
inhibition at 10 µM (TbrPDEB1): ≥ 50%

CCCCOc1cc(CC2CNC(=O)N2)ccc1OC (stereo not shown) [RO 20-1724]
IC50 (TbrPDEB1): > 100 µM

O=C(Nc1c(Cl)cncc1Cl)c1ccc(OC(F)F)c(OCC2CC2)c1 [Roflumilast (6), roflumilast]
activity against TbrPDEB1 (in words) (TbrPDEB1): essentially inactive

COc1ccc(C2CNC(=O)C2)cc1OC1CCCC1 (stereo not shown) [Rolipram (7), rolipram]
activity against TbrPDEB1 (in words) (TbrPDEB1): essentially inactive

COc1cc2c(cc1OC)-c1c/c(=N\c3c(C)cc(C)cc3C)n(C)c(=O)n1CC2 [Trequinsin (2), trequinsin]
inhibition at 100 µM (TbrPDEB1): > 50%
